# Experimental data published in paper PMC5059489, “Mechanistic evaluation and transcriptional signature of a glutathione S-transferase omega 1 inhibitor” (Nature Communications, 2016).
# Values joined by “and” are separate entries in the source; they are usually repeats but may differ in a detail not shown here. Equal values may be shown once.
# Columns and labels:
# GSTO1 [1] = biological target: T1, GSTO1 (Homo sapiens, UniProt P78417); test: GSTO1 substrate assay (reduction of 4-NPG); conditions: for IC50: read-out: GSTO substrate assay IC50, cluster screening tables
# T1 sequence (P78417 1-241): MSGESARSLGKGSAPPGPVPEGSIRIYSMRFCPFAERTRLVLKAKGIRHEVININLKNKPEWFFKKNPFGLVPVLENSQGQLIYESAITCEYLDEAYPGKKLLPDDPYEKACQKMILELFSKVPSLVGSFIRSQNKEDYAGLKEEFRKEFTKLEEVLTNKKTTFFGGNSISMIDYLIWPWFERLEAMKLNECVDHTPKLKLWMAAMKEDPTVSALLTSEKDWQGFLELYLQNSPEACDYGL
# Protocol: For activity screening, we adapted a GSTO1 substrate assay that relies on the quantification of the reduction of S-(4-nitrophenacyl)glutathione (4-NPG), a GSTO1-specific substrate[17], using recombinant human GSTO1 in a high-throughput screening format.
# Enzyme activity was measured by monitoring the reduction of 4-NPG to 4-nitroacetophenone by GSTO1.
# endogenous GSTO1 = biological target: T2, endogenous GSTO1 (Homo sapiens, UniProt P78417); test: In-gel fluorescence competitive CMFDA binding assay, endogenous GSTO1 in HCT116; conditions: 10 µM; inhibition of CMFDA binding, HCT116
# T2 sequence (P78417 1-241): T1 sequence (P78417 1-241)
# Excerpt: (§1) Primary screening of GSTO inhibitors was based on competitive inhibition of CMFDA binding to endogenous GSTO. Briefly, HCT116^p53+/+ cells (4 × 10^4 per well) were coated in a 12-well plate. […] Cells were then washed with PBS and lysed using Cell Lytic M buffer (Sigma). […] Gels were immediately scanned on a Typhoon variable mode imager (Amersham Bioscience). Quantification of fluorescent band intensity was done using Image Quant 5.2 software.
# HCT116p53+/+ cell = test: MTT cell proliferation at single concentration; type: cell-based, human
# Protocol: Cell proliferation was assessed by a MTT assay. Cancer cells were seeded in 96-well microtitre plates and, after overnight attachment, treated with GSTO1 inhibitors. After 72 h, MTT solution (3 mg ml^−1; 20 μl) was added to each well and cells were incubated for 3 h at 37 °C. After incubation, media from each well was removed and the dark blue formazan crystals formed by live cells were dissolved in DMSO (150 μl per well). The absorbance intensity was measured at 570 nm on a microplate reader (Molecular Devices, Sunnyvale, CA, USA). Cell viability after 24 h treatment was assessed using ApoTox-Glo triplex assay (Promega) according to the manufacturer's protocol. At least three independent dose–response experiments with each concentration tested in triplicate were performed for each cell line.
# GSTO1 [2] = biological target: T1, GSTO1; test: In-gel fluorescence competitive CMFDA binding assay, recombinant GSTO1; conditions: inhibition of CMFDA binding
# Excerpt: as §1
Compound,GSTO substrate assay % Inhibition at 10 µM (GSTO1 [1]),GSTO binding assay (% Inhibition at 10 µM) Endogenous (endogenous GSTO1),GSTO binding assay (% Inhibition at 10 µM) Recombinant (GSTO1 [2]),IC50 (GSTO1 [1]),% Inhibition of HCT116p53+/+ cell proliferation at 10 µM (HCT116p53+/+ cell)
Cc1c(NC(=O)c2c(NC(=O)CCl)sc3c2CCCC3)c(=O)n(-c2ccccc2)n1C [C2-19],1.2%,58.6%,51.8%,–,52.7% and 40.5%
COc1ccc(-c2csc(NC(=O)CCl)n2)c(O)c1 [C2-24],34.0%,62.1%,82.4%,–,22.9% and 19.2%
O=C(CCl)Nc1nc2cc3c(cc2s1)OCCO3 [C2-27],85.1%,59.6%,69.0%,8.67 µM,42.6% and 38.2%
CCN(CC)S(=O)(=O)c1ccc(CNC(=O)CCl)cc1 [C3-2],86.4%,63.6%,63.3%,1.48 µM,55.3% and 49.6%
CC(NC(=O)CCl)c1ccc2c(c1)OCO2 (stereo not drawn) [C3-7],12.5%,12.6%,12.3%,–,73.6%
CC(C)C(NC(=O)CCl)c1ccc2c(c1)OCCO2 (stereo not drawn) [C3-8],16.5%,33.4%,-4.9%,–,91.2% and 77.9%
O=C(CCl)NCC1COc2ccccc2O1 (stereo not drawn) [C3-9],80.7%,53.9%,30.7%,–,24.9%
Cn1ccnc1C(NC(=O)CCl)c1ccccc1 (stereo not drawn) [C3-10],78.4%,48.4%,29.4%,–,96.5% and 87.4%
COc1cc(CCNC(=O)CCl)ccc1OC(F)F [C3-11],9.8%,45.6%,10.1%,–,8.1% and 16.1%
CN(C)C(CNC(=O)CCl)c1ccccc1 (stereo not drawn) [C3-12],83.2%,9.7%,22.0%,–,5%
O=C(CCl)NCCCSc1ccccc1 [C3-14],78.4%,56.4%,38.8%,–,28.5%
CN(CCCNC(=O)CCl)c1ccccc1 [C3-16],83.1%,45.4%,23.7%,–,28.7%
O=C(CCl)NNc1c(Cl)cc(Cl)cc1Cl [C3-17],61.9%,39.3%,57.6%,–,7.4%
CC(C)(C)c1ccc(C(=O)NNC(=O)CCl)cc1 [C3-20],42.7%,32.9%,3.9%,–,29.1%
O=C(CCl)NNC(=O)c1ccc(Br)cc1 [C3-21],81.3%,27.6%,58.4%,–,9.9%
O=C(CCl)NNC(=O)c1cc2c(s1)CCCC2 [C3-23],-3.5%,-11.7%,-4.1%,–,3.7%
CC(NC(=O)CCl)c1cc2ccccc2o1 (stereo not drawn) [C3-29],73.0%,88.9%,46.7%,–,89.7%
CC(NC(=O)CCl)C12CC3CC(CC(C3)C1)C2 (stereo not drawn) [C3-33],36.3%,55.3%,16.6%,–,24.7% and 38.5%
O=C(CCl)NCCC12CC3CC(CC(C3)C1)C2 [C3-34],78.6%,41.7%,50.9%,–,-2.4%

# Now from value to compound, other results behind:
GSTO substrate assay % Inhibition at 10 µM (GSTO1 [1]),GSTO binding assay (% Inhibition at 10 µM) Endogenous (endogenous GSTO1),GSTO binding assay (% Inhibition at 10 µM) Recombinant (GSTO1 [2]),IC50 (GSTO1 [1]),Compound,% Inhibition of HCT116p53+/+ cell proliferation at 10 µM (HCT116p53+/+ cell)
3.8%,51.7%,39.2%,–,CCOC(=O)c1cc(C(C)C)sc1NC(=O)CCl [C2-8],4.5% and 0.8%
13.9%,59.2%,50.0%,–,CCOC(=O)c1c(NC(=O)CCl)sc(Cl)c1-c1ccccc1 [C2-9],16.3%
25.9%,41.3%,48.1%,–,CCOC(=O)c1c(NC(=O)CCl)sc(Cc2ccc3c(c2)OCO3)c1C [C2-13],38.1%
-7.0%,58.2%,57.9%,–,CCOC(=O)c1c(NC(=O)CCl)sc(C(=O)Nc2ccc(C)cc2C)c1C [C2-14],6.3%
77.2%,24.8%,51.5%,–,CCOC(=O)c1c(NC(=O)CCl)sc2c1CCN(CC)C2 [C2-17],85.2% and 94.5%
47.4%,41.1%,50.5%,–,Cc1sc2ncn(NC(=O)CCl)c(=O)c2c1C [C2-30],12.0%
85.1%,31.8%,14.7%,–,CCOc1cc2c(cc1CNC(=O)CCl)OC(C)C2 (stereo not drawn) [C3-5],64.1% and 63.6%
82.4%,57.1%,36.2%,–,O=C(CCl)NCC(=O)Nc1ccc(F)c(F)c1 [C3-25],64.5% and 67.8%
42.0%,44.1%,15.1%,–,CC(C)C(NC(=O)CCl)c1cccs1 (stereo not drawn) [C3-28],48.5% and 48.7%
